From ChEMBL document CHEMBL4265931, “Identification of dual Sigma1 receptor modulators/acetylcholinesterase inhibitors with antioxidant and neurotrophic properties, as neuroprotective agents” (Eur J Med Chem, 2018)
Calls of active or inactive are those of the source. The rule behind the calls is not given here.

How the values were obtained:
[1] = biological target: Sigma non-opioid intracellular receptor 1 (Cavia porcellus, UniProt Q60492); experiment: Displacement of [3H](+)-pentazocine from S1R in guinea pig brain cortex membranes after 120 mins by scintillation counting assay; assay type: cell membranes
Chain of Sigma non-opioid intracellular receptor 1 (Q60492 whole entry): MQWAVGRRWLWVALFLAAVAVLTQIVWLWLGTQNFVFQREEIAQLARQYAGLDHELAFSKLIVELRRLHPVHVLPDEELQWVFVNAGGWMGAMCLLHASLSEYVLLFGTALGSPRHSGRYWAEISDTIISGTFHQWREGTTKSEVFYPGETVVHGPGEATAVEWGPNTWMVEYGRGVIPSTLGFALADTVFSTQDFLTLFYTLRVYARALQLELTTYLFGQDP

[2] = biological target: T1, Sigma intracellular receptor 2 (Rattus norvegicus, UniProt Q5U3Y7); experiment: Displacement of [3H]-DTG from S2R in rat liver membranes after 120 mins by scintillation counting assay; assay type: cell membranes, Membrane
T1 sequence (Q5U3Y7 whole entry): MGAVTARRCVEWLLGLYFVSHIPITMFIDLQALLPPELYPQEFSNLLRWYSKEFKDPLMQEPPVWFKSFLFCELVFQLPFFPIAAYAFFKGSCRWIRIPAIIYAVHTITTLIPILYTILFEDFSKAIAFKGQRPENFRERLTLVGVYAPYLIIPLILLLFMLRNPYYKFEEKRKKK

[3] = Selectivity ratio of Ki for S2R in rat liver membranes to Ki for S1R in guinea pig brain cortex membranes; assay type: cell membranes
Acetylcholinesterase = Acetylcholinesterase (Electrophorus electricus, UniProt O42275); experiment: Inhibition of electric eel AChE using acetylthiocholine iodide as substrate preincubated for 5 mins followed by substrate addition and measured after 2 mins by Ellman's method
Chain of Acetylcholinesterase (O42275 whole entry): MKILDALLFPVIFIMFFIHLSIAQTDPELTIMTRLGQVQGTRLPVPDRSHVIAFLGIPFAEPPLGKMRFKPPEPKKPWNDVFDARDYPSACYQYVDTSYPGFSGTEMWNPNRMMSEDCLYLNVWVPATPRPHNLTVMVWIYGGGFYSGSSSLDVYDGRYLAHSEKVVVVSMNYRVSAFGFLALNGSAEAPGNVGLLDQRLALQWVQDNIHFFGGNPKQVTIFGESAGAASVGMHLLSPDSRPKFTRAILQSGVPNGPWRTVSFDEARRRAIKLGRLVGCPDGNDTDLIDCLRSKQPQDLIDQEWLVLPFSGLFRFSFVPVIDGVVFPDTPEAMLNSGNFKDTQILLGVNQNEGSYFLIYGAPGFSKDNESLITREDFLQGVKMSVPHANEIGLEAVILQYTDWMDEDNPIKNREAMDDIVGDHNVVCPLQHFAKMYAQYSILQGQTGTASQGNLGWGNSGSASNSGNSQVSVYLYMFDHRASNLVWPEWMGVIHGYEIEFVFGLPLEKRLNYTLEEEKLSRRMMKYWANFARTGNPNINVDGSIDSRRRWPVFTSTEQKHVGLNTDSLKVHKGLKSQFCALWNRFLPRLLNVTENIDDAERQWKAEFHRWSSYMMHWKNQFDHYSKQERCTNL

[4] = Displacement of [3H]-ifenprodil from GluN1a/GluN2B (unknown origin) expressed in mouse L(tk-) cell membranes after 120 mins by scintillation counting analysis; parameters: species or system Homo sapiens
[5] = Antioxidant activity assessed as DPPH free radical scavenging at 465 uM after 20 mins by UV-Vis spectrophotometric analysis relative to control; assay type: functional
SH-SY5Y [6] = experiment: Cytotoxicity against human SH-SY5Y cells assessed as reduction in cell viability after 24 hrs by MTS assay; assay type: cell-based; conditions: for Activity: human, sh-sy5y
SH-SY5Y [7] = experiment: Cytotoxicity against human SH-SY5Y cells assessed as reduction in cell viability after 48 hrs by MTS assay; assay type: cell-based; conditions: for Activity: human, sh-sy5y
in vitro [8] = conditions: human, SH-SY5Y cells
Description: Cytotoxicity against human SH-SY5Y cells assessed as cell viability at 10 uM after 24 hrs by MTS assay relative to control

in vitro [9] = conditions: human, SH-SY5Y cells; remark: listed apart in the source
in vitro [10] = conditions: human, SH-SY5Y cells; remark: listed apart in the source
Description: Cytotoxicity against human SH-SY5Y cells assessed as cell viability at 50 uM after 24 hrs by MTS assay relative to control

in vitro [11] = conditions: human, SH-SY5Y cells; remark: listed apart in the source
Description: Cytotoxicity against human SH-SY5Y cells assessed as cell viability at 10 uM after 48 hrs by MTS assay relative to control

in vitro [12] = conditions: human, SH-SY5Y cells; remark: listed apart in the source
in vitro [13] = conditions: human, SH-SY5Y cells; remark: listed apart in the source
Description: Cytotoxicity against human SH-SY5Y cells assessed as cell viability at 50 uM after 48 hrs by MTS assay relative to control

[14] = Antioxidant activity assessed as DPPH free radical scavenging after 20 mins by UV-Vis spectrophotometric analysis; assay type: functional
SH-SY5Y [15] = experiment: Neuroprotection against H2O2-induced oxidative stress in human SH-SY5Y cells assessed as reduction in ROS generation at 10 uM preincubated for 3 hrs followed by DCFDA addition for 45 mins and subsequent co-treatment with compound and H2O2 for 24 hrs by fluorescence assay relative to control; assay type: functional; parameters: scale not given: the % may be the effect or the level left
[16] = Neurotrophic activity in Sprague-Dawley rat embryo DRG neuron assessed as increase in neurite length at 2.5 uM after 24 hrs relative to control; assay type: functional
[17] = Neurotoxicity in Sprague-Dawley rat embryo DRG neuron at 2.5 to 5 uM after 24 to 48 hrs; assay type: toxicity
[18] = Neurotoxicity in Sprague-Dawley rat embryo DRG neuron at 10 uM after 24 hrs; assay type: toxicity
[19] = Neurotoxicity in Sprague-Dawley rat embryo DRG neuron at 10 uM after 48 hrs; assay type: toxicity

Row | Compound | Ki [1] | Ki [2] | Ratio Ki [3] | IC50 (Acetylcholinesterase) | Ki [4] | Activity [5] | Activity (SH-SY5Y [6]) | Activity (SH-SY5Y [7]) | viability at 24 h, 10 µM (in vitro [8]) | viability at 24 h, 25 µM (in vitro [9]) | viability at 24 h, 50 µM (in vitro [10]) | viability at 48 h, 10 µM (in vitro [11]) | viability at 48 h, 25 µM (in vitro [12]) | viability at 48 h, 50 µM (in vitro [13]) | further results
1 | COc1cccc(C(=O)CN2CCC(Cc3ccccc3)CC2)c1 | 131 nM | 1500 nM | 11.5 | 32800 nM | 11 nM |  |  |  |  |  |  |  |  |  | 
2 | Cl.O=C(CCCN1CCC(Cc2ccccc2)CC1)c1ccc2ccccc2c1 | 24 nM | 58 nM | 2.4 |  | 26 nM | 31.6% | Dose-dependent effect | Dose-dependent effect | 80.2% | 86% | 86% | 77% | 57% | 61% | 
3 | COc1ccc(C(=O)CCN2CCCCC2)cc1.Cl | 7.9 nM | 2100 nM | 256 |  | 1700 nM | 14.4% | Dose-dependent effect | Dose-dependent effect | 119% | 86% | 63% | 104% | 49.4% | 43.4% | 
4 | COc1ccc(C(=O)CCN2CCOCC2)cc1 | 301 nM | > 1000 nM |  |  | > 1000 nM |  |  |  |  |  |  |  |  |  | 
5 | Cl.O=C(CCN1CCCCC1)c1ccc2ccccc2c1 |  | 178 nM | 81 |  | > 1000 nM | 18.3% | Dose-dependent effect | Dose-dependent effect | 98.6% | 66.4% | 65.4% | 70.3% | 42% | 40% | 
6 | Cl.O=C(CCN1CCC(Cc2ccccc2)CC1)c1ccccc1 | 16 nM | 5800 nM | 363 |  | 39 nM | 25.9% | Dose-dependent effect | Dose-dependent effect | 93% | 48% | 49% | 106% | 44% | 36% | 
7 | O=C(CN1CCC(Cc2ccccc2)CC1)c1ccc(-c2ccccc2)cc1 |  | > 1000 nM |  |  | > 1000 nM |  |  |  |  |  |  |  |  |  | 
8 | COc1cccc(C(=O)CCCN2CCC(Cc3ccccc3)CC2)c1.Cl | 17 nM | 43 nM | 2.5 | 7640 nM | 49 nM | 32% | Dose-dependent effect | Dose-dependent effect | 100% | 100% | 98% | 94.8% | 85.6% | 65% | 
9 | O=C(CCN1CCC(Cc2ccccc2)CC1)c1ccc2ccccc2c1 | 211 nM | 6200 nM | 29.4 | 18600 nM | > 1000 nM |  |  |  |  |  |  |  |  |  | 
10 | Cl.O=C(CCCN1CCC(Cc2ccccc2)CC1)c1ccccc1 | 9 nM | 47 nM | 5.2 | 13100 nM | 39 nM | 29.3% | Dose-dependent effect | Dose-dependent effect | 100% | 100% | 87% | 96% | 95% | 54% | 
11 | COc1ccc(C(=O)CCCN2CCC(Cc3ccccc3)CC2)cc1.Cl | 31 nM | 111 nM | 6.8 | 12800 nM | 96 nM | 12.9% | Dose-dependent effect | Dose-dependent effect | 100% | 100% | 84.4% | 97.3% | 87% | 61% | 
12 | O=C(CCCN1CCC(Cc2ccccc2)CC1)c1ccc(-c2ccccc2)cc1 | 135 nM | 704 nM | 5.2 | 13900 nM | 96 nM |  |  |  |  |  |  |  |  |  | 
13 | CC(C(O)c1ccc(O)cc1)N1CCC(Cc2ccccc2)CC1 (centres undefined) [IFENPRODIL] |  |  |  |  | 10 nM |  |  |  |  |  |  |  |  |  | 
14 | COc1cc(/C=C/C(=O)CC(=O)/C=C/c2ccc(O)c(OC)c2)ccc1O [CURCUMIN] |  |  |  |  |  | 71.3% |  |  | 100% | 76.5% | 71.5% | 100% | 58.7% | 59% | IC50 [14]: 13500 nM; Activity (SH-SY5Y [15]): 0%
15 | COc1ccc2cc(C(=O)CN3CCC(Cc4ccccc4)CC3)ccc2c1 | 286 nM | 1400 nM | 4.9 |  | > 1000 nM |  |  |  |  |  |  |  |  |  | 
16 | O=C(CCN1CCOCC1)c1ccccc1 | 606 nM | > 1000 nM |  |  | > 1000 nM |  |  |  |  |  |  |  |  |  | 
17 | Cl.O=C(CN1CCC(Cc2ccccc2)CC1)c1ccc2ccccc2c1 |  | 802 nM | 30 | 9130 nM | 139 nM | 65.7% | Dose-dependent effect | Dose-dependent effect | 107% | 104% | 81.3% | 89.5% | 77.6% | 48.4% | IC50 [14]: 86800 nM; IC50 (SH-SY5Y [6]; Homo sapiens, SH-SY5Y): 52000 nM; IC50 (SH-SY5Y [7]; Homo sapiens, SH-SY5Y): 57000 nM; Activity (SH-SY5Y [15]): <=43%; Activity [16]: 15%; Activity [17]: Non-Toxic; Activity [18]: Toxic; Activity [19]: Non-Toxic
18 | C[C@H](CCN1CCCCC1)c1ccc(-c2ccccc2)cc1 |  | 45 nM | 25 |  | > 1000 nM |  |  |  | 100% | 100% | 86% | 84% | 77.1% | 57.3% | Activity (SH-SY5Y [15]): inactive
19 | Cl.O=C(CCN1CCOCC1)c1ccc2ccccc2c1 |  | > 1000 nM |  |  | > 1000 nM | 8.14% | Dose-dependent effect | Dose-dependent effect | 77% | 48% | 49% | 79% | 38% | 37% | 
20 | O=C(CN1CCC(Cc2ccccc2)CC1)c1ccccc1 | 75 nM | 2300 nM | 30.7 |  | 215 nM |  |  |  |  |  |  |  |  |  | 
21 | O=C(CCN1CCC(Cc2ccccc2)CC1)c1ccc(-c2ccccc2)cc1 | 167 nM | 3900 nM | 23.4 |  | > 1000 nM |  |  |  |  |  |  |  |  |  | 
22 | COc1ccc2cc(C(=O)CCCN3CCC(Cc4ccccc4)CC3)ccc2c1 | 68 nM | 107 nM | 1.6 | 4280 nM | 20 nM |  |  |  |  |  |  |  |  |  | 
23 | Cl.O=C(CCN1CCOCC1)c1ccc(-c2ccccc2)cc1 |  | > 1000 nM |  |  | 723 nM | 22.1% | Dose-dependent effect | Dose-dependent effect | 100% | 73% | 83.3% | 100% | 66% | 62.4% | 
24 | COc1ccc(C(=O)CN2CCC(Cc3ccccc3)CC2)cc1.Cl | 27 nM | 2000 nM | 74 |  | 16 nM | 65.6% | Dose-dependent effect | Dose-dependent effect | 103% | 98.4% | 87% | 85.5% | 69.3% | 52.5% | IC50 [14]: 147000 nM
25 | O=C(CCN1CCCCC1)c1ccccc1 | 171 nM | 749 nM | 4.4 |  | > 1000 nM |  |  |  |  |  |  |  |  |  | 
26 | COc1ccc(C(=O)CCN2CCC(Cc3ccccc3)CC2)cc1.Cl | 11 nM | 2400 nM | 218 | 22000 nM | 198 nM | 2.8% | Dose-dependent effect | Dose-dependent effect | 99.9% | 63.9% | 56.5% | 97.4% | 50.2% | 44.7% | Activity (SH-SY5Y [15]): inactive
